{
  "source": "patent US12392776B2",
  "about": "“Methods and kits for detecting exosomal protein” (City University of Hong Kong, priority 2020, dated 2025)",
  "assay_type_in_all_cases": "cell-based, human",
  "key": {"GMs": {"tested_on": "GMs", "experiment": "Intracellular Ca2+ level (Fluo-4 AM Ca2+ assay / Fura Red imaging)", "conditions": "FIG. 23B", "experimental": "To further investigate whether the change of intracellular Ca^2+ concentrations could be associated with hypoxia-driven enhanced exosome release, […], AM Ca^2+ imaging and Fluo-4 AM Ca^2+ assay were conducted with normoxic- and hypoxic-U251 cells.\nTo recapitulate the hypoxia-induced acidic TME, sodium-L-lactates (20 mM) were applied to the culture medium of GMs."}, "U251 cells": {"tested_on": "U251 cells", "experiment": "NTA exosome release assay", "experimental": "To investigate the correlation between the malignant transition of hypoxic GMs and their production and release of exosomes, the secretion assay of exosomes was conducted via using nanoparticle tracking analysis (NTA). U251 cells were tested under normoxic or hypoxic condition.\nBriefly, a represents Exo-FBS medium, b represents Sodium-L-lactate (20 mM), c represents BAPTA-AM, d represents BAPTA-AM with the pretreatment of Sodium-L-lactate (20 mM). All chemicals were dissolved in the Exo-FBS medium containing 1% DMSO. All data were shown as the mean±SEM. Significance level: **P<0.01, *P<0.05, hypoxia vs. normoxia, No-treatment vs. BAPTA-AM, MCT1 KD virus vs. Empty backbone virus (control 1), CD147 antisense vs. antisense control (control 2)."}, "HIF-1α": {"tested_on": "HIF-1α"}},
  "data": [
    {"molecule": "CC(=O)OCOC(=O)CN(CC(=O)OCOC(C)=O)c1ccccc1OCCOc1ccccc1N(CC(=O)OCOC(C)=O)CC(=O)OCOC(C)=O", "note": "[BAPTA-AM]", "values": [
      {"measurement": "intracellular Ca2+ level", "setting": "GMs; GMs after sodium-L-lactate, BAPTA-AM 20 μM, 100 μl added to 2.1 ml medium", "result": "distinctive decline in intracellular Ca^2+ level"},
      {"measurement": "exosome release", "setting": "U251 cells; GMs with induction of MCT1 OE and CD147 OE, BAPTA-AM 20 μM, 100 μl added to 2.1 ml medium, FIG. 23A", "result": "marked decline in exosome release"},
      {"measurement": "exosome release", "setting": "U251 cells; GMs, lactate-stimulated release, BAPTA-AM with pretreatment of sodium-L-lactate 20 mM, 10 min, FIG. 23C", "result": "blocked"},
      {"measurement": "exosome release", "setting": "U251 cells; hypoxia-enhanced release from U251 cells, intracellular Ca2+ chelated with BAPTA-AM (20 μM)", "result": "blocked the enhanced release of exosomes"}
    ]},
    {"molecule": "[Cl-].[Cl-].[Co+2]", "note": "[CoCl2]", "values": [
      {"measurement": "HIF-1α expression and nuclear localization", "setting": "HIF-1α", "result": "increased HIF-1α expression and enhanced nuclear localization of HIF-1α"}
    ]},
    {"molecule": "C[C@H](O)C(=O)[O-].[Na+]", "note": "[sodium-L-lactate]", "values": [
      {"measurement": "intracellular Ca2+ level", "setting": "GMs; GMs, sodium-L-lactate 20 mM, 100 μl added to 2 ml medium", "result": "enhanced intracellular Ca^2+ level"},
      {"measurement": "exosome release", "setting": "U251 cells; GMs exposed to sodium-L-lactate 20 mM for 10 min, FIG. 23C", "result": "promote exosome release"}
    ]}
  ]
}
